Test results as given in patent publication US7745465B2, “Method of enhancing cellular production of molecular chaperone, hydroxylamine derivatives useful for enhancing the chaperone production and the preparation thereof” (CytRx Corporation, priority 1995, dated 2010).

Tests used:
Hsp60 = test: Western blot of hsp60 in heat shocked H9c2 cells; format: cell-based, rat
Method: Experiments set forth in this section were conducted to determine whether N-[2-hydroxy-3-(1-piperidinyl)propoxy]-3-pyridinecarboximidoyl chloride maleate acts to increase the expression of molecular chaperon by a cell. The accumulation of different heat shock proteins subsequent to a period of exposure to heat shock alone, and to heat shock in combination with N-[2-hydroxy-3-(1-piperidinyl)propoxy]-3-pyridinecarboximidoyl chloride maleate administration, was examined by adding 10^−5 M of N-[2-hydroxy-3-(1-piperidinyl)propoxy]-3-pyridinecarboximidoyl chloride maleate before, during, or immediately after hyperthermic treatment of heart myogenic cells (H9c2 cells).
The embryonic rat heart-derived cell line H9c2 was obtained from European Collection of Animal cell Cultures (ECACC) (88092904). The cells were maintained at 37° C. in Dulbecco's modified Eagle's medium (DMEM) supplemented with 10% fetal calf serum (GIBCO) in JOUAN C02 thermostat (5% CO2).
Heat shock was performed at 43° C. in CO2 thermostat for the given time intervals (20, 40, 60, 90 and 120 min.). Cells were then taken back to 37° C. for 6 hours and proteins were extracted for SDS-PAGE. When N-[2-hydroxy-3-(1-piperidinyl)propoxy ]-3-pyridinecarboximidoyl chloride maleate was added before heat shock. 10^−5 M N-[2-hydroxy-3-(1-piperidinyl)propoxy]-3-pyridinecarboximidoyl chloride maleate was administered for 16 hours before the stress. In other set of experiments, N-[2-hydroxy-3-(1-piperidinyl)propoxy]-3-pyridinecarboximidoyl chloride maleate was added in 10^−5 M concentration right after heat stress, during the 6 hours recovery period. The experiments were repeated three times.
For SDS-P AGE, cells were grown in 6 cm Petri dishes. The amount of the cells at the start of the experiment was 8×10^5 and were still suconfluent when proteins were extracted. After the 6 hours recovery cells were washed two times in PBS then scrapped from the surface of the dishes in PBS. […]
Protein concentration was determined from 5:1 samples by the Bradford assay (M. M. Braford, Anal. Biochem., 72: 248-254 (1976)) in three parallel. […]

P 1 = test: P1 transcription factor activity in yeast cells; format: cell-based; settings: minimal medium
Excerpt: (§1) It was also investigated if the activity of AP-1 and P 1 transcription factors can be modulated by N-[2-hydroxy-3-(1-piperidinyl)propoxy]-3-piridinecarboximidoyl chloride maleate in yeast cells exposed to various stress conditions.

hsp72 = hsp72 in skin of UVB exposed human skin grafted SCID mice (immunofluorescence, Western blot); format: in vivo; settings: 5.0 mg/kg i.p.
Method: Human skin tissues were grafted onto immunodeficiency (SCID) mice. The experimental protocol involved a treatment of one group of the mice with N-[2-hydroxy-3-(1-piperidinyl)propoxy]-3-piridinecarboxymidoyl chloride maleate (5.0 mg/kg i.p.) and the other with the solvent NaCl solution (300 μl) for 7 days. On day 8, both groups of mice were exposed to UVB light (100 mJ/cm^2) 24 hours subsequent to the exposure, skin biopsies were taken for histological (sections stained with hematoxylin and eosin), and immunohistological examinations (indirect immunoflourescence technique with monoclonal antibody, mAB).
All steps were carried out at room temperature. Skin (about 9-35 mg) was cut into tiny pieces and homogenized with frosted-glass pestle in Eppendorf tubes for 2 min. in ([…]) of 2 times concentrated Laemmli buffer (65 mM Tris-HCI, pH 6.8: 5% β-mercaptoethanol; 2% SDS; 10% glycerol; 0.1% bromophenolblue; all of these materials were Sigma products). Then samples were solubilized for another 60 min. with continuous shaking. The homogenates were centrifuged at 10.000 rpm for 10 min. prior loading to the gel.
Electrophoresis were carried out on 8% polyacrylamide gel with 10 μl of sample per lane at constant voltage (50 V) for overnight. […]

AP-1 = AP-1 transcription factor activity in yeast cells; format: cell-based
Excerpt: as §1

SMILES: O=C(O)/C=C\C(=O)O.OC(CON=C(Cl)c1cccnc1)CN1CCCCC1 (centres unmarked) [N-[2-hydroxy-3-(1-piperidinyl)-propoxy]3-pyridinecarboximidoyl chloride maleate]
- amount of hsp60 increased (compared to 37° C. control) (Hsp60; 10^−5 M added 16 hours before heat stress, 20 min. heat treatment at 43° C.): about fivefold
- effect on the level of hsp60 (Hsp60; added during the recovery phase): also effective though to a significantly lesser extent
- effect on the level of hsp60 (Hsp60; treatment at 37° C., no heat shock): no measurable effect
- activity of P 1 (P 1): activity decreased
- amount of hsp72 by Western blotting (hsp72; UVB 100 mJ/cm^2, biopsy after 24 h): increased amount of hsp72
- hsp72 staining by indirect immunofluorescence (hsp72; UVB 100 mJ/cm^2, biopsy after 24 hours): intense, linear staining along the basement membrane zone
- activity of AP-1 (AP-1; rich medium): decrease the activity of the factor
- activity of AP-1 (AP-1; supply of nutrients inadequate): increases the activity of AP-1
